Measurements as given in publication PMC6283615, “Anilinoquinoline based inhibitors of trypanosomatid proliferation” (PLoS Neglected Tropical Diseases, 2018).
≈ marks a conversion by molar mass, not a printed value. Entries after “also recorded” stand apart in the source; their conditions may differ.

How the values were obtained:
[1] = tested on: T. cruzi amastigote (Tulahuen strain expressing β-galactosidase); assay: Intracellular T. cruzi assay in 3T3 cells (beta-galactosidase, 96 h); format: cell-based, Trypanosoma cruzi; conditions: for EC50: Trypanosoma cruzi, TULAHUEN, NIH3T3, 96 h, read-out: T. cruzi amastigote EC50
Procedure, shortened: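 3T3 cells in phenol-red-free DMEM with 2% FBS were infected with Tulahuen β-galactosidase trypomastigotes, 5×10^4 per well, and exposed to compounds from 50 μM in 1:2 serial dilutions, in triplicate. After 96 h at 37°C, 5% CO2, 500 μM CPRG in PBS with 0.5% NP40 was added for 4 h; absorbance was read at 590–595 nm.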

[2] = Human liver microsome intrinsic clearance; format: in vitro ADME
T. brucei brucei CA427 = assay: Murine model of acute HAT (T. b. brucei infected mice); format: in vivo
Protocol: Bloodstream form (BSF) T. brucei brucei CA427 parasites were maintained at densities below 1×10^6 cells/mL in HMI-9 media supplemented with 10% fetal bovine serum (Atlanta Biologicals), 10% SERUM PLUS (Sigma), and 1% Antibiotic-Antimycotic Solution (Corning cellgro) at 37°C, 5% CO2 [18]. Parasites were centrifuged at 5000 xg for 3 min at room temperature and resuspended in cold 1xPBS containing 1% glucose to yield a solution of 2.5×10^6 cells/mL. Correct cell density following resuspension was confirmed using a Z2 Coulter Counter (Beckman). Parasite viability was observed by motility with a Neubauer Bright-line hemocytometer. Cells were kept on ice until infection.
Compound 14 –on day 0, female Swiss-Webster mice (8–10 weeks old, 20–25 g, n = 4 per group) (Harlan) were infected i.p. with 2.5×10^5 trypanosomes by injecting 100 μL of resuspension using 26G needles. Day 1 to 3 post-infection, mice received a single i.p. dose of either drug vehicle (dimethylsulfoxide, 3.4 mL/kg) (Fisher Scientific) or drug (14, 25 mg/kg). Parasitemia was determined on days 2 and 3 post-infection by collecting 3 μL of blood from the tail vein.
Day 1 to 3 post-infection, mice received a single p.o. dose of either drug vehicle (10% NMP and 90% PEG, 10 mL/kg) (Fisher Scientific) or drug (22, 60 mg/kg). From days 4 to 6, the dose was increased to 70 mg/kg for the mice in the treatment group. Parasitemia was determined on days 3 to 6 post-infection by collecting 3 μL of blood from the tail vein.
Blood samples were mixed with 21 μL of RBC Lysis Solution (Qiagen) and incubated at room temperature for 15–45 min prior to observing for parasites by hemocytometer. Humane euthanasia by CO2 overdose followed by incision to form a bilateral pneumothorax was conducted on mice at study termination. All animal experimental protocols were approved and performed in accordance with the guidelines of the Institutional Animal Care and Use Committee (IACUC) at the University of Georgia.

L. major amastigote = assay: L. major intracellular amastigote luciferase assay in RAW 264.7 macrophages; format: cell-based, Leishmania major; conditions: Leishmania major, RAW264.7; intracellular amastigotes in RAW 264.7 macrophages, 96 h
Procedure, shortened: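 Murine RAW 264.7 macrophages were infected overnight with luciferase-expressing L. major metacyclic promastigotes (MOI 1:10). Non-internalized parasites were washed off before 96 h compound exposure (0.5–10,000 ng/mL) at 37°C, 5% CO2.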

Aqueous solubility = format: physicochemical
[3] = Rat hepatocyte intrinsic clearance; format: in vitro ADME; conditions: hepatocytes
T. congolense IL3000 = assay: In vitro drug sensitivity assay for T. congolense (72 h); format: cell-based; conditions: Trypanosoma congolense, IL3000 strain
Protocol: In vitro drug sensitivity assay for T. congolense (72 h): Compounds were tested in vitro for efficacy against the IL3000 T. congolense (drug sensitive) strain which was originally derived from the Trans Mara I strain, isolated from a bovine in 1966 in Kenya. […] Compounds were assayed in at least three separate, independent experiments and an 11-point dilution curve was used to determine the EC50 values. Bloodstream form trypanosomes were supported in HMI-9 medium containing 20% bovine serum and were incubated with test compounds for 69 h at 34°C in a humidified atmosphere containing 5% CO2. Thereafter, 10 μL of Resazurin dye (12.5 mg in 100 mL of phosphate-buffered saline, Sigma-Aldrich, Buchs, Switzerland) was added for an additional 3 h. Plates were read using a fluorescence plate reader (Spectramax, Gemini XS, Bucher Biotec, Basel, Switzerland) using an excitation wavelength of 536 nm and an emission wavelength of 588 nm.

Row | Structure (SMILES) | EC50 [1] [nM] | SI (T. cruzi) ([1]; selectivity index calculated relative to 3T3 cells) | microsomal CLint ([2]; liver microsomes) [µL/min/mg] | Toxicity in infected mice (T. brucei brucei CA427; 25 mg/kg i.p.) | Mice showing 10-fold reduction in parasitemia (T. brucei brucei CA427; 25 mg/kg i.p., n = 4) [%] | Mice with no detectable parasitemia (T. brucei brucei CA427; 25 mg/kg i.p., n = 4) | Reduction in parasitemia (T. brucei brucei CA427; 25 mg/kg i.p., vs DMSO vehicle) [fold] | EC50 (L. major amastigote) [nM] | solubility (Aqueous solubility) [µM] | hepatocyte CLint [3] [µL/min/1e6 cells] | EC50 (T. congolense IL3000) [nM] | Human Liver Microsome CLint [2] [µL/min/mg] | Parasitemia vs control group (T. brucei brucei CA427; p.o. once daily 60 mg/kg days 1-3, then 70 mg/kg, by day 5, vehicle 10% NMP 90% PEG) | Toxicity in infected mice (T. brucei brucei CA427; p.o. once daily 60 mg/kg, first three days)
1 | CN1CCN(c2ncc(-c3ccc4c(Nc5ccc(OCc6cccc(F)c6)c(Cl)c5)ccnc4c3)cn2)CC1 [Compound 14] | 90 | 170 | 54 | no evidence of toxicity | 75 | one had no detectable parasitemia | 10 | 1500 | < 1 | 24 | 160 |  |  | 
2 | CN1CCN(c2ncc(-c3ccc4c(Nc5cnccn5)ccnc4c3)cn2)CC1 [Compound 22] | 6000 |  |  |  |  |  |  | 2500 | 44 (≈ 17.5 µg/mL) | 130 | 50 | 180 | no statistically significant difference; also recorded: failed to affect parasitemia | no signs of toxicity
